We go through 4 compounds from US8637237B2, “Methods, compositions, and systems for the identification of species-specific or developmental stage-specific insecticides” (The University of North Carolina at Greensboro, priority 2003, dated 2014).

Molecules are shown by their SMILES.

The target of this assay is T1, EcRB1/DmUSPF2 (Drosophila melanogaster, UniProt P34021).
T1 construct: The plasmid encodes a version of EcRB1 that includes 878 amino acids, and deletes the F domain; expressed in transfected cells; host or cells: CHO (mammalian cells)
T1 sequence (P34021 1-878): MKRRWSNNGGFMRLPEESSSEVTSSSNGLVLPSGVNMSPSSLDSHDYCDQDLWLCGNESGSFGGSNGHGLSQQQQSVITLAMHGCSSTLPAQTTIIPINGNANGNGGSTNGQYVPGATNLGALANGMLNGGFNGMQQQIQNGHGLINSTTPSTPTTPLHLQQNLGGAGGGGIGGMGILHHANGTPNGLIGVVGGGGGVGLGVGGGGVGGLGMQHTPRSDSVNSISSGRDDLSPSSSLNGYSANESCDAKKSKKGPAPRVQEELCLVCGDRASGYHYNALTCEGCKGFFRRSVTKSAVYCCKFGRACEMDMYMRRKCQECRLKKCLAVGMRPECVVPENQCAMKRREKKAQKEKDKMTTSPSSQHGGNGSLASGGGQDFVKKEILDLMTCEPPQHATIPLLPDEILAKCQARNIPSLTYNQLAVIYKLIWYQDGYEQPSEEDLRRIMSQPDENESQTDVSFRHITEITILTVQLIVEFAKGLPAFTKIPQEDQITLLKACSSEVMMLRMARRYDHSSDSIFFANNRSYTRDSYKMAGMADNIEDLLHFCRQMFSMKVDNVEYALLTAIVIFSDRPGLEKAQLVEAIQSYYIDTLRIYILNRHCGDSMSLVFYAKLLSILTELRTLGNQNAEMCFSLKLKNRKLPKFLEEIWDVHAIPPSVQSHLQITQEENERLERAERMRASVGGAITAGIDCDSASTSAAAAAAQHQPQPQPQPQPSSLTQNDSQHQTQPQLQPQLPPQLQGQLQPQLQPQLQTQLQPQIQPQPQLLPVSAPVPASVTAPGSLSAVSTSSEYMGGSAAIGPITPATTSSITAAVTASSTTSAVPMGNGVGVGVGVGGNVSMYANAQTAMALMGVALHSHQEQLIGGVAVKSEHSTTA
T1 sequence (P20153 104-507 partner limits assumed): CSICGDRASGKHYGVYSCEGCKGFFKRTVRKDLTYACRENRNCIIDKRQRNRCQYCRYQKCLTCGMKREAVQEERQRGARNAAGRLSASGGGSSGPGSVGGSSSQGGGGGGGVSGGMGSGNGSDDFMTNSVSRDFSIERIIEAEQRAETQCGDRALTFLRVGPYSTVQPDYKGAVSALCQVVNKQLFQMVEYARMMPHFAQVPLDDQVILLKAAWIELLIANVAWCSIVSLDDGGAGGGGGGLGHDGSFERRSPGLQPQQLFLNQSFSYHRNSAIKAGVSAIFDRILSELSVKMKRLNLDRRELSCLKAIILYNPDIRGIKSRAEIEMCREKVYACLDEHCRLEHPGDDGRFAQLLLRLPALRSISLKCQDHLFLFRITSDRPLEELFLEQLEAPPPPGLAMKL
The experiment in a line: Drosophila EcRB1 with Drosophila USPF2, luciferase reporter in mammalian cells (FIG. 6). Format: cell-based. The conditions noted are these: for increase of the effect of 0.1 μM murA: with 0.1 μM murA. The method, then: Unless noted otherwise, 100 ng of each EcR and USP plasmid was transfected into 2 ml of cell culture medium. As noted above, a reporter gene carrying five tandem copies of the hsp27 ecdysone response element (Riddihough and Pelham, 1986) is attached to a constitutive thymidine kinase promoter and a luciferase reporter gene (pEcREtk-LUC) and cotransfected into the cells along with vectors expressing EcR, USP, and a constitutively active β-galactosidase gene with lipofection, following manufacturer's protocols. The subsequent measure of luciferase activity reflects ecdysteroid-inducible transcription.
The Drosophila EcR isoform vectors (A, B1, and B2) used for these experiments have been described previously (Mouillet et al, 2001). These vectors lack the F-domain, which is also not essential for in vivo function (Cherbas et al, 2003). Additionally, three different VP16-USP vectors were utilized. Construction is of the VP16-USP vectors is described below. As in the earlier study, hsp27-EcRE mediated transcriptional activity was measured by detecting the luminescence produced by luciferase in transfected cell extracts. Luciferase activity was normalized by transfection with a plasmid that constitutively expresses the β-galactosidase gene such that enzymatic activity correlated with cellular mass.
After a 4 hour transfection period, the hormone treatment was applied by diluting stock solutions of muristerone A (murA; Alexis Corporation, San Diego, Calif.), JHI (Scitech), JHIII (Sigma, St Louis, Mo.), and/or 20E (Sigma, St Louis, Mo.) in DMSO. The cells were harvested 24 hours after treatment and the contents of the cells extracted for performing the luciferase and β-galactosidase assays.
For orientation: In a reporter assay the amount or activity of a reporter protein is the signal.

As to `COC(=O)/C=C(\C)CC/C=C(\C)CC[C@H]1OC1(C)C` [JHIII, juvenile hormone III], the “increase of the effect of 0.1 μM murA” value was “increased”.
Regarding `CC(C)=CCCC(C)=CCCC(C)=CC(=O)O` [farnesoic acid], the “increase of the effect of 0.1 μM murA” value is reported as “increased”.
The same measure, in the same setting: the result for `COC(=O)/C=C(\C)CC/C=C(\C)CCC=C(C)C` [methyl farnesoate] reads “increased”.
With `CC(C)CC[C@@H](O)[C@](C)(O)[C@H]1CC[C@@]2(O)C3=CC(=O)[C@]4(O)C[C@@H](O)[C@@H](O)C[C@]4(C)[C@H]3[C@H](O)C[C@]12C` [murA, muristerone A], for the setting “0.1 μM and 1.0 μM murA”, the “stimulation of EcRB1/USPF2 complex” value is reported as “stimulated”.
